Earlier results in US20230405034A1, “FORMULATION OF IVERMECTIN IN SOFT GELATIN CAPSULES” (PROCAPS S.A., priority 2020, published 2023).

How the values were obtained:
[1] = tested on: SARS-CoV-2; conditions: SARS-CoV-2 in vitro, after 48 hours; cited from earlier work
[2] = cited from earlier work
[3] = tested on: pseudorabies DNA virus (PRV); conditions: ivermectin treatment; cited from earlier work
[4] = in vivo; cited from earlier work

Ivermectin
reduction in viral RNA [1]: approximately 5,000 fold
solubility in water [2]: practically insoluble in water
survival in PRV-infected mice [3]: increases survival

medium chain triglycerides
plasma half-life [4]: approximately 17 minutes
